Reference: patent US20120165310A1, “ETHER DERIVATIVES OF BICYCLIC HETEROARYLS” (NOVARTIS AG, priority 2009, published 2012)
pIC50: −log10 of the molar value.

The compounds below were run against T1, IGF-1R (Homo sapiens, UniProt P08069) (assay: Cellular IGF-1R assay: capture ELISA (MSD) of receptor phosphorylation in Hek293 cells). Conditions: Hek293-IGF1R cells, 1 h pre-incubation, 10 min IGF stimulation, pIGF1R capture ELISA.
T1 construct: expressed in transfected cells; host or cells: Hek293 (Hek293-IGF1R)
T1 sequence (P08069 31-1367): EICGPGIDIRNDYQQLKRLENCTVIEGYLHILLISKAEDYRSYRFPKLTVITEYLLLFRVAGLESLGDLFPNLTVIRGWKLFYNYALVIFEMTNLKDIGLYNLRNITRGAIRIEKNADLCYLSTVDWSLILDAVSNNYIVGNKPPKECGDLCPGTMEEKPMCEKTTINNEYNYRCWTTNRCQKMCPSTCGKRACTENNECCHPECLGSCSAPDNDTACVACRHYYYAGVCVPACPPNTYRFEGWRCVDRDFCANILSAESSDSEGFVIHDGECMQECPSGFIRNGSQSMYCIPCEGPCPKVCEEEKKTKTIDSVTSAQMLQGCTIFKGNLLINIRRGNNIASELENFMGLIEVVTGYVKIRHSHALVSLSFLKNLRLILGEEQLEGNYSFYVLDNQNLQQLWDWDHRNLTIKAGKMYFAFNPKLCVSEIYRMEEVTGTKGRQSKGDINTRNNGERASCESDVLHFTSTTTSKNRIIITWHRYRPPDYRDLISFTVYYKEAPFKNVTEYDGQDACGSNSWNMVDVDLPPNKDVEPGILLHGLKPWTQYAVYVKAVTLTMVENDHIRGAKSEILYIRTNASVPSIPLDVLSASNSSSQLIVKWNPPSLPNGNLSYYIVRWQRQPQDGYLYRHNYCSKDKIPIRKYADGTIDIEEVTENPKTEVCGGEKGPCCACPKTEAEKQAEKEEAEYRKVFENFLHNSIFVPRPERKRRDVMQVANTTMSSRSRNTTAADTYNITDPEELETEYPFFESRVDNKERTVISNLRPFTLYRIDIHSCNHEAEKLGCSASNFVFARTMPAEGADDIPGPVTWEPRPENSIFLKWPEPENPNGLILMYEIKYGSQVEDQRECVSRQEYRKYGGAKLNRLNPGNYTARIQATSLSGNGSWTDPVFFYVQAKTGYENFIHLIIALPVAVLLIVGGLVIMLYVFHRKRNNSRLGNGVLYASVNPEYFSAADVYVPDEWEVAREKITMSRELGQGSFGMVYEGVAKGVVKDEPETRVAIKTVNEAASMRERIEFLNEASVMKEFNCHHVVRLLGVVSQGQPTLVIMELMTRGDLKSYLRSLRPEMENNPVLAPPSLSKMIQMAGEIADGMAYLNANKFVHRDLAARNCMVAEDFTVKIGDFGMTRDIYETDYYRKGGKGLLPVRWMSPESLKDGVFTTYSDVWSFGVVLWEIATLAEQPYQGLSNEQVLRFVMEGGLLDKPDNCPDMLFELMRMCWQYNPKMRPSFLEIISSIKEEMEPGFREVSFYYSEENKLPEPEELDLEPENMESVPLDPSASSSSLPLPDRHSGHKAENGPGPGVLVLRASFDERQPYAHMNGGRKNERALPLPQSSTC
Type: cell-based
How it was run: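 IC50 from 4-parameter fit of IGF1R phosphorylation, normalised to IGF-stimulated and unstimulated controls, measured by MSD capture ELISA on lysates. Hek293-IGF1R cells in starvation medium got compound 1 h (top 10 μM, 3-fold steps, 0.1% DMSO) before a 10 min pulse of 1.0 ng/μL IGF.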
`CC12CCC(COc3cccc(-c4cn([C@H]5C[C@@H](CN6CCS(=O)(=O)CC6)C5)c5ncnc(N)c45)c3)(CC1)O2` (relative stereo) [Example 155, 7-[cis-3-(1,1-dioxo-1-thiomorpholin-4-ylmethyl)-cyclobutyl]-5-[3-(4-methyl-7-oxa-bicyclo[2.2.1]hept-1-ylmethoxy)-phenyl]-7H-pyrrolo[2,3-d]pyrimidin-4-ylamine] showed a pIC50 of 7.27 to 7.62.
For `CC1(C)CCC(COc2cccc(-c3cn([C@H]4C[C@@H](CN5CC[C@@H](O)C5)C4)c4ncnc(N)c34)c2)O1` (stereo partly drawn) [Example 58, (R)-1-(cis-3-{4-amino-5-[3-(5,5-dimethyl-tetrahydro-furan-2-ylmethoxy)-phenyl]-pyrrolo[2,3-d]pyrimidin-7-yl}cyclobutylmethyl)-pyrrolidin-3-ol], the pIC50 was 7.30.
In the case of `NC(=O)[C@@H]1[C@H](O)CCN1C[C@H]1C[C@@H](n2cc(-c3cccc(OCC4CCCO4)c3)c3c(N)ncnc32)C1` (stereo partly drawn) [Example 82, (2S,3R)-1-(cis-3-{4-amino-5-[3-(tetrahydro-furan-2-ylmethoxy)-phenyl]-pyrrolo[2,3-d]pyrimidin-7-yl}-cyclobutylmethyl)-3-hydroxy-pyrrolidine-2-carboxylic acid amide], the pIC50 was 6.69.
`CN1CCN([C@H]2CC[C@@H](n3cc(-c4cccc(OC[C@H]5CCC(C)(C)O5)c4)c4c(N)ncnc43)CC2)CC1` [Example 121, 5-(3-(((R)-5,5-dimethyltetrahydrofuran-2-yl)methoxy)phenyl)-7-((1S,4S)-4-(4-methylpiperazin-1-yl)cyclohexyl)-7H-pyrrolo[2,3-d]pyrimidin-4-amine] showed a pIC50 of 6.83.
`Nc1ncnc2c1c(-c1cccc(OCC34CCC(CC3)O4)c1)cn2C1CCC(N2CC[C@H](F)C2)CC1` (stereo partly drawn) [Example 132, 5-(3-(7-oxabicyclo[2.2.1]heptan-1-ylmethoxy)phenyl)-7-((1R,4R)-4-((S)-3-fluoropyrrolidin-1-yl)cyclohexyl)-7H-pyrrolo[2,3-d]pyrimidin-4-amine] gave a pIC50 of 6.94.
`CC1(C)CCC(COc2cccc(-c3cn([C@H]4C[C@H](CN5CC(O)C5)C4)c4ncnc(N)c34)c2)O1` (relative stereo) [Example 48, 1-(trans-3-{4-amino-5-[3-(5,5-dimethyl-tetrahydro-furan-2-ylmethoxy)-phenyl]-pyrrolo[2,3-d]pyrimidin-7-yl}-cyclobutylmethyl)-azetidin-3-ol] showed a pIC50 of 7.59.
Work on `NC[C@H]1C[C@@H](n2cc(-c3cccc(OCC45CCC(CC4)O5)c3)c3c(N)ncnc32)C1` (relative stereo) [Example 160, 7-[cis-3-aminomethyl-cyclobutyl]-5-[3-(7-oxa-bicyclo[2.2.1]hept-1-ylmethoxy)-phenyl]-7H-pyrrolo[2,3-d]pyrimidin-4-ylamine] yielded a pIC50 of 7.62.
`Nc1ncnc2c1c(-c1cccc(OCC34CCC(CC3)O4)c1)cn2C1CC(CN2CC3CC2CS3)C1` [Example 227, 5-[3-(7-Oxa-bicyclo[2.2.1]hept-1-ylmethoxy)-phenyl]-7-{(trans-3-[(1S,4S)-1-(2-thia-5-aza-bicyclo[2.2.1]hept-5-yl)methyl]-cyclobutyl}-7H-pyrrolo[2,3-d]pyrimidin-4-ylamine] showed a pIC50 of 7.13.
`CC1(C)CCC(COc2cccc(-c3cn(C4CC(CN5CCC(F)C5)C4)c4ncnc(N)c34)c2)O1` (single isomer, unassigned) [Example 46] showed a pIC50 of 7.82.
For `NC(=O)[C@@H]1CCCN1[C@H]1C[C@H](n2cc(-c3cccc(OCC45CCC(CC4)O5)c3)c3c(N)ncnc32)C1` [Example 190, (S)-1-(trans-3-{4-Amino-5-[3-(7-oxa-bicyclo[2.2.1]hept-1-ylmethoxy)-phenyl]-pyrrolo[2,3-d]pyrimidin-7-yl}-cyclobutyl)-pyrrolidine-2-carboxylic acid amide], the pIC50 was 6.36.
For `CS(=O)(=O)N1CCN(C[C@H]2CC[C@@H](n3cc(-c4cccc(OCC56CCC(CC5)O6)c4)c4c(N)ncnc43)CC2)CC1` [Example 137, 5-(3-(7-oxabicyclo[2.2.1]heptan-1-ylmethoxy)phenyl)-7-((1S,4S)-4-((4-(methylsulfonyl)piperazin-1-yl)methyl)cyclohexyl)-7H-pyrrolo[2,3-d]pyrimidin-4-amine], the pIC50 was 6.79.
For `NC(=O)[C@@H]1CCCN1C[C@H]1C[C@H](n2cc(-c3cccc(OCC45CCC(CC4)O5)c3)c3c(N)ncnc32)C1` [Example 78, (S)-1-(trans-3-{4-amino-5-[3-(7-oxa-bicyclo[2.2.1]hept-1-ylmethoxy)-phenyl]-pyrrolo[2,3-d]pyrimidin-7-yl}cyclobutylmethyl)-pyrrolidine-2-carboxylic acid amide], the pIC50 was 8.30.
`CC1CCC(COc2cccc(-c3cn([C@H]4C[C@@H](CN5CCC5)C4)c4ncnc(N)c34)c2)O1` (stereo partly drawn) [Example 5, cis-7-(3-azetidin-1-ylmethyl-cyclobutyl)-5-[3-(5-methyl-tetrahydro-furan-2-ylmethoxy)-phenyl]-7H-pyrrolo[2,3-d]pyrimidin-4-ylamine] gave a pIC50 of 7.24 to 7.29.
For `Nc1ncnc2c1c(-c1cccc(OCC34CCC(CC3)O4)c1)cn2[C@H]1C[C@@H](N2CCN(CCO)CC2)C1` (relative stereo) [Example 172, 2-[4-(cis-3-{4-amino-5-[3-(7-oxa-bicyclo[2.2.1]hept-1-ylmethoxy)-phenyl]-pyrrolo[2,3-d]pyrimidin-7-yl}-cyclobutyl)-piperazin-1-yl]-ethanol], the pIC50 was 7.68.
`NC(=O)C1CC(F)CN1CC1CC(n2cc(-c3cccc(OCC4CCCCO4)c3)c3c(N)ncnc32)C1` [Example 97, (2S,4S)-1-(((1S,3R)-3-(4-amino-5-(3-((tetrahydro-2H-pyran-2-yl)methoxy)phenyl)-7H-pyrrolo[2,3-d]pyrimidin-7-yl)cyclobutyl)methyl)-4-fluoropyrrolidine-2-carboxamide] showed a pIC50 of 6.98.
`CC1(C)CCC(COc2cccc(-c3cn([C@H]4C[C@@H](CN5CCNC(=O)C5)C4)c4ncnc(N)c34)c2)O1` (stereo partly drawn) [Example 61, 4-(cis-3-{4-amino-5-[3-(5,6-dimethyl-tetrahydro-furan-2-ylmethoxy)-phenyl]-pyrrolo[2,3-d]pyrimidin-7-yl}-cyclobutylmethyl)-piperazin-2-one] showed a pIC50 of 6.67.
For `NC(=O)[C@@H]1CCCN1C[C@H]1C[C@H](n2cc(-c3cccc(OCC4CCCO4)c3)c3c(N)ncnc32)C1` (stereo partly drawn) [Example 86, (S)-1-(trans-3-(4-amino-5-[3-(tetrahydro-furan-2-ylmethoxy)-phenyl]-pyrrolo[2,3-d]pyrimidin-7-yl}-cyclobutylmethyl)-pyrrolidine-2-carboxylic acid amide], the pIC50 was 7.33.
In the case of `CN1CCN(C[C@]2(O)C[C@@H](n3cc(-c4cccc(OCC56CCC(CC5)O6)c4)c4c(N)ncnc43)C2)CC1` [Example 123, (Z)-3-{4-Amino-5-[3-(7-oxa-bicyclo[2.2.1]hept-1-ylmethoxy)-phenyl]-pyrrolo[2,3-d]pyrimidin-7-yl}-1-(4-methyl-piperazin-1-ylmethyl)-cyclobutanol], the pIC50 was 7.16.
`CCNC(=O)NCC1CC(n2cc(-c3cccc(OCC45CCC(CC4)O5)c3)c3c(N)ncnc32)C1` (stereo not drawn) [Example 163, 1-(3-{4-amino-5-[3-(7-oxa-bicyclo[2.2.1]hept-1-ylmethoxy)-phenyl]-pyrrolo[2,3-d]pyrimidin-7-yl}-cyclobutylmethyl)-3-ethyl-urea] showed a pIC50 of 6.82.
With `Nc1ncnc2c1c(-c1cccc(OCC34CCC(CC3)O4)c1)cn2[C@H]1CC[C@@H](Cn2ccnc2)CC1` [Example 148, 7-((1S,4S)-4-((1H-imidazol-1-yl)methyl)cyclohexyl)-5-(3-(7-oxabicyclo[2.2.1]heptan-1-ylmethoxy)phenyl)-7H-pyrrolo[2,3-d]pyrimidin-4-amine] the pIC50 was 6.61.
`Cc1nccn1C[C@H]1C[C@@H](n2cc(-c3cccc(OCC4CCCCO4)c3)c3c(N)ncnc32)C1` (relative stereo) [Example 154, 7-[cis-3-(2-methyl-imidazol-1-ylmethyl)-cyclobutyl]-5-[3-(tetrahydro-pyran-2-ylmethoxy)-phenyl]-7H-pyrrolo[2,3-d]pyrimidin-4-ylamine] gave a pIC50 of 7.15.
For `CC1(C)CCC(COc2cccc(-c3cn([C@H]4C[C@H](CN5CCC[C@H]5C(N)=O)C4)c4ncnc(N)c34)c2)O1` (stereo partly drawn) [Example 71, (S)-1-(trans-3-{4-amino-5-[3-(5,5-dimethyl-tetrahydro-furan-2-ylmethoxy)-phenyl]-pyrrolo[2,3-d]pyrimidin-7-yl}-cyclobutylmethyl)-pyrrolidine-2-carboxylic acid amide], the pIC50 was over 8.40.
`NC[C@]1(O)C[C@@H](n2cc(-c3cccc(OCC45CCC(CC4)O5)c3)c3c(N)ncnc32)C1` [Example 208, (Z)-1-Aminomethyl-3-{4-amino-5-[3-(7-oxa-bicyclo[2.2.1]hept-1-ylmethoxy)-phenyl]-pyrrolo[2,3-d]pyrimidin-7-yl}-cyclobutanol] showed a pIC50 of 6.76.
`CNC(=O)[C@H]1CCCN1C[C@H]1C[C@@H](n2cc(-c3cccc(OCC4CCCCO4)c3)c3c(N)ncnc32)C1` (stereo partly drawn) [Example 100, (2R)-1-(((1R,3R)-3-(4-amino-5-(3-((tetrahydro-2H-pyran-2-yl)methoxy)phenyl)-7H-pyrrolo[2,3-d]pyrimidin-7-yl)cyclobutyl)methyl)-N-methylpyrrolidine-2-carboxamide] gave a pIC50 of 6.35.
For `CC1(C)CCC(COc2cccc(-c3cn([C@H]4C[C@H](CN5CC[C@@H](O)[C@H]5C(N)=O)C4)c4ncnc(N)c34)c2)O1` (stereo partly drawn) [Example 80, (2S,3R)-1-(trans-3-(4-amino-5-[3-(5,5-dimethyl-tetrahydro-furan-2-ylmethoxy)-phenyl]-pyrrolo[2,3-d]pyrimidin-7-yl}-cyclobutylmethyl)-3-hydroxy-pyrrolidine-2-carboxylic acid amide], the pIC50 was 7.89.
Work on `CC(=O)NN[C@H]1C[C@@H](n2cc(-c3cccc(OCC45CCC(CC4)O5)c3)c3c(N)ncnc32)C1` (relative stereo) [Example 193, Acetic acid N′-(cis-3-{4-amino-5-[3-(7-oxa-bicyclo[2.2.1]hept-1-ylmethoxy)-phenyl]-pyrrolo[2,3-d]pyrimidin-7-yl}-cyclobutyl)-hydrazide] yielded a pIC50 of 6.95.
`Nc1ncnc2c1c(-c1cccc(OCC34CCC(CC3)O4)c1)cn2C1CC(O)(CN2CCC(O)C2)C1` (single isomer, unassigned) [Example 203] showed a pIC50 of 6.30.
